The text below walks through data of patent publication US20230321086A1, “METHODS AND MATERIALS FOR INHIBITING NICOTINAMIDE PHOSPHORIBOSYLTRANSFERASE ACTIVITY” (Universiy of Pittsburgh - Of the Commonwealth System of …, priority 2020, published 2023).

By IC50 is commonly meant the midpoint of a concentration-inhibition curve.

NAMPT, sequence (P43490 whole entry, species assumed): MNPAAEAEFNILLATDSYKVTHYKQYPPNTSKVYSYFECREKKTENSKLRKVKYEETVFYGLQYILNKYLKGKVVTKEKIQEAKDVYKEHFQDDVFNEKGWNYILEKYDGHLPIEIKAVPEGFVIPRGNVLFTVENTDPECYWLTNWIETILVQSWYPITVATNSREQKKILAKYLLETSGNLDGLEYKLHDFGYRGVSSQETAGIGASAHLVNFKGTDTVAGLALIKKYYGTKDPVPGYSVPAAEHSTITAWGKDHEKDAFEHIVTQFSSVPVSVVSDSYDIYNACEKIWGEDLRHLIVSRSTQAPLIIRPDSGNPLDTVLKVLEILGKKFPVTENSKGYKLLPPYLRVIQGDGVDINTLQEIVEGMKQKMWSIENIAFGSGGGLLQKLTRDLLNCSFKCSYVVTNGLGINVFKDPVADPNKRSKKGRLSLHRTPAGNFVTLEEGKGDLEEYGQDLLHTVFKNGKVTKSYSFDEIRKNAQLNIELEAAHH

The test addresses NAMPT (Homo sapiens, UniProt P43490). Kind of test: Assay for in vitro NAMPT activity via NMN assessment. In kind it is biochemical. Conditions: read-out: A: NAMPT enzyme inhibitory activity, IC50. On the procedure:
The following were added to a well: 20 μL 2× test compound in Basic Buffer (0.02% BSA, 2 mM DTT, 12 mM MgCl2, 50 mM Tris pH7.5); 10 μL 8 μg/mL NAMPT, and 200 μM PRPP working solution (or PRPP working solution to background wells). 10 μL 100 μM NAM working solution was added to start the reaction. The plate was sealed and incubated for 45 minutes at 37° C. After incubation, 10 μL 20% acetophenone in DMSO, 10 μL 2N KOH, and 20 μL 88% formic acid were added. The plate was sealed and incubated for 30 minutes at 37° C. After incubation, fluorescence at Ex/Em 387/441 was read.
In each table header, A: NAMPT enzyme inhibitory activity, IC50 (μM); B: Cellular NAD inhibitory activity, IC50 (μM); and C: change in NAD levels in response to test compound, shown as % of NAD activity in the absence of test compound. […] A percentage of 100 percent would indicate no increase or decrease in NAD levels as compared to that measured for untreated control cells, while a percentage of 50 percent would indicate a decrease in NAD levels of 50 percent as compared to that measured for untreated control cells.
In the case of `O=C(NCCc1ccncc1)c1cnc2nc(-c3ccc(F)cc3)c(-c3ccc(F)cc3)nc2c1` [BC20206], the half-maximal inhibitory concentration (IC50) is less than 1 µM.

As to `COCC(=O)NCc1cccc(-c2nc3ccc(C(=O)N4CCN(C)CC4)cc3nc2-c2cccc(CNC(=O)COC)c2)c1` [BC20273], the IC50 is no less than 25 µM.

Regarding `CN(C)CC(=O)Nc1cccc(-c2nc3ccc(C(=O)N4CCN(C)CC4)cc3nc2-c2cccc(NC(=O)CN(C)C)c2)c1` [BC20286], the half-inhibitory concentration (IC50) was no less than 25 µM.

As to `O=C1N(Cc2cccnc2)CCCN1c1ccc2nc(-c3ccc(F)cc3)c(-c3ccc(F)cc3)nc2c1` [BC20219], the 50% inhibitory concentration (IC50) was no less than 25 µM.

In the case of `O=C(NCc1ccc2nc(-c3ccc(F)cc3)c(-c3ccc(F)cc3)nc2c1)NC[C@H]1CCCNC1` [BC20285], the 50% inhibitory concentration (IC50) was in the range of 1 to 25 µM.

Consider `CN1CCN(C(=O)c2ccc3nc(-c4cccc(NS(C)(=O)=O)c4)c(-c4ccc(F)cc4)nc3c2)CC1` [BC20290], for which the IC50 was no less than 25 µM.

In the case of `CN1CCN(C(=O)c2ccc3nc(-c4cccc(CN5CCCC5)c4)c(-c4cccc(CN5CCCC5)c4)nc3c2)CC1` [BC20242], the IC50 is no less than 25 µM.

Regarding `C#CCNC(=O)c1ccc2nc(-c3ccc(F)cc3)c(-c3cccc(NS(C)(=O)=O)c3)nc2c1` [BC20212], the concentration for half-maximal inhibition (IC50) was no less than 25 µM.

Consider `C#CCNC(=O)c1ccc2nc(-c3ccc(F)cc3)c(-c3cccc(NC(C)=O)c3)nc2c1` [BC20222], for which the IC50 was no less than 25 µM.

In the case of `C#CCNC(=O)c1ccc2nc(-c3ccc(F)cc3)c(-c3cccc(NC(=O)CN(C)C)c3)nc2c1` [BC20214], the IC50 was no less than 25 µM.

Turning to `O=C1NCCCN1c1ccc2nc(-c3ccc(F)cc3)c(-c3ccc(F)cc3)nc2c1` [BC20218], the IC50 is no less than 25 µM.

Take `CC(C)CC(=O)N1CCC[C@H](CNC(=O)c2ccc3nc(-c4ccc(F)cc4)c(-c4ccc(F)cc4)nc3c2)C1` [BC20292]: the IC50 was no less than 25 µM.

Consider `CC(=O)N1CCC[C@H](CNC(=O)c2ccc3nc(-c4ccc(F)cc4)c(-c4ccc(F)cc4)nc3c2)C1` [BC20271], for which the IC50 is no less than 25 µM.

Turning to `C#CCNC(=O)c1ccc2nc(-c3ccc(F)cc3)c(-c3cccc(CN4CCCC4)c3)nc2c1` [BC20223], the IC50 was no less than 25 µM.

Turning to `CN(C)CCNC(=O)Nc1cnc2nc(-c3ccc(F)cc3)c(-c3ccc(F)cc3)nc2c1` [BC20312], the IC50 is no less than 25 µM.

`CN1CCCC(NC(=O)NCc2ccc3nc(-c4ccc(F)cc4)c(-c4ccc(F)cc4)nc3c2)C1` (centres unmarked) [BC20251]: the IC50 is no less than 25 µM.

On to `CN(C)Cc1cccc(-c2nc3cc(C(=O)N4CCN(C)CC4)ccc3nc2-c2ccc(F)cc2)c1` [BC20215], for which the half-inhibitory concentration (IC50) was no less than 25 µM.

Regarding `CN1CCN(Cc2cccc(-c3nc4ccc(C(=O)N5CCN(C)CC5)cc4nc3-c3ccc(F)cc3)c2)CC1` [BC20249], the IC50 is no less than 25 µM.

With `O=C(NCCN1CCCC1)c1cnc2nc(-c3ccc(F)cc3)c(-c3ccc(F)cc3)nc2c1` [BC20202], the IC50 is no less than 25 µM.

For `CN1CCC[C@H](CNC(=O)c2ccc3nc(-c4ccc(F)cc4)c(-c4ccc(F)cc4)nc3c2)C1` [BC20280], the IC50 was 1 to 25 µM.

Consider `CS(=O)(=O)N1CCC[C@H](CNC(=O)c2ccc3nc(-c4ccc(F)cc4)c(-c4ccc(F)cc4)nc3c2)C1` [BC20270], for which the concentration for half-maximal inhibition (IC50) is no less than 25 µM.

With `CC(=O)N1CCCC(CNC(=O)NCc2ccc3nc(-c4ccc(F)cc4)c(-c4ccc(F)cc4)nc3c2)C1` (centres unmarked) [BC20301], the IC50 lay in the range of 1 to 25 µM.

Take `C#CCCC(=O)N1CCC[C@H](CNC(=O)c2ccc3nc(-c4ccc(F)cc4)c(-c4ccc(F)cc4)nc3c2)C1` [BC20295]: the IC50 is no less than 25 µM.

Consider `CC(=O)Nc1cccc(-c2nc3cc(C(=O)N4CCN(C)CC4)ccc3nc2-c2ccc(F)cc2)c1` [BC20208], for which the IC50 was no less than 25 µM.

With `CC(=O)N1CCCC(NC(=O)Nc2ccc3nc(-c4ccc(F)cc4)c(-c4ccc(F)cc4)nc3c2)C1` (centres unmarked) [BC20217], the IC50 was 1 to 25 µM.

`C#CCNC(=O)c1ccc2nc(-c3ccc(F)cc3)c(-c3cccc(CO)c3)nc2c1` [BC20220]: the IC50 is no less than 25 µM.

Consider `O=C(NCCc1cccnc1)Nc1ccc2nc(-c3ccc(F)cc3)c(-c3ccc(F)cc3)nc2n1` [BC20310], for which the 50% inhibitory concentration (IC50) was less than 1 µM.

On to `CN(C)Cc1cccc(-c2nc3ccc(C(=O)N4CCN(C)CC4)cc3nc2-c2cccc(CN(C)C)c2)c1` [BC20260], for which the IC50 was no less than 25 µM.

In the case of `COCC(=O)NCc1cccc(-c2nc3cc(C(=O)N4CCN(C)CC4)ccc3nc2-c2ccc(F)cc2)c1` [BC20264], the IC50 was no less than 25 µM.

With `O=C(NCc1ccccc1)Nc1cnc2nc(-c3ccc(F)cc3)c(-c3ccc(F)cc3)nc2c1` [BC20207], the half-maximal inhibitory concentration (IC50) is no less than 25 µM.

In the case of `C#CCNC(=O)c1ccc2nc(-c3cccc(NC(C)=O)c3)c(-c3cccc(NC(C)=O)c3)nc2c1` [BC20227], the IC50 is no less than 25 µM.

In the case of `C#CCNC(=O)c1ccc2nc(-c3cccc(NC(=O)COC)c3)c(-c3cccc(NC(=O)COC)c3)nc2c1` [BC20228], the half-inhibitory concentration (IC50) is no less than 25 µM.

Regarding `CN1CCN(C(=O)c2ccc3nc(-c4cccc(NS(C)(=O)=O)c4)c(-c4cccc(NS(C)(=O)=O)c4)nc3c2)CC1` [BC20258], the IC50 was no less than 25 µM.

With `CS(=O)(=O)N1CCCC(CNC(=O)Nc2ccc3nc(-c4ccc(F)cc4)c(-c4ccc(F)cc4)nc3c2)C1` (centres unmarked) [BC20300], the IC50 was in the range of 1 to 25 µM.

For `COCC(=O)Nc1cccc(-c2nc3ccc(C(=O)N4CCN(C)CC4)cc3nc2-c2cccc(NC(=O)COC)c2)c1` [BC20221], the IC50 was no less than 25 µM.

For the compound `CS(=O)(=O)N1CCC[C@H](CNC(=O)NCc2ccc3nc(-c4ccc(F)cc4)c(-c4ccc(F)cc4)nc3c2)C1` [BC20284], the concentration for half-maximal inhibition (IC50) fell in the range of 1 to 25 µM.

Consider `CS(=O)(=O)N1CCCC(NC(=O)Nc2ccc3nc(-c4ccc(F)cc4)c(-c4ccc(F)cc4)nc3c2)C1` (centres unmarked) [BC20238], for which the concentration for half-maximal inhibition (IC50) lay in the range of 1 to 25 µM.

In the case of `CN1CCN(C(=O)c2ccc3nc(-c4cccc(CNS(C)(=O)=O)c4)c(-c4cccc(CNS(C)(=O)=O)c4)nc3c2)CC1` [BC20259], the IC50 was no less than 25 µM.

Turning to `COCCNC(=O)N1CCC[C@H](CNC(=O)c2ccc3nc(-c4ccc(F)cc4)c(-c4ccc(F)cc4)nc3c2)C1` [BC20282], the concentration for half-maximal inhibition (IC50) was no less than 25 µM.

As for `CCCS(=O)(=O)N1CCCC(NC(=O)Nc2cnc3nc(-c4ccc(F)cc4)c(-c4ccc(F)cc4)nc3c2)C1` (centres unmarked) [BC20293], the IC50 was no less than 25 µM.

Take `CN1CCN(C(=O)c2ccc3nc(-c4cccc(CN5CCCC5)c4)c(-c4ccc(F)cc4)nc3c2)CC1` [BC20248]: the 50% inhibitory concentration (IC50) was no less than 25 µM.

With `O=C1N(Cc2ccncc2)CCCN1c1ccc2nc(-c3ccc(F)cc3)c(-c3ccc(F)cc3)nc2c1` [BC20226], the IC50 was 1 to 25 µM.

For `CN1CCN(C(=O)c2ccc3nc(-c4ccc(F)cc4)c(-c4cccc(N(C)C)c4)nc3c2)CC1` [BC20262], the IC50 was no less than 25 µM.

On to `CN1CCN(C(=O)c2ccc3nc(-c4ccc(F)cc4)c(-c4cccc(CNS(C)(=O)=O)c4)nc3c2)CC1` [BC20231], for which the half-maximal inhibitory concentration (IC50) was no less than 25 µM.

In the case of `C#CCNC(=O)c1ccc2nc(-c3cccc(CNC(=O)CN(C)C)c3)c(-c3cccc(CNC(=O)CN(C)C)c3)nc2c1` [BC20289], the IC50 is no less than 25 µM.

Turning to `CS(=O)(=O)N1CCCC(NC(=O)NCc2ccc3nc(-c4ccc(F)cc4)c(-c4ccc(F)cc4)nc3c2)C1` (centres unmarked) [BC20253], the half-maximal inhibitory concentration (IC50) was no less than 25 µM.

For the compound `C#CCNC(=O)c1ccc2nc(-c3ccc(F)cc3)c(-c3cccc(CNC(=O)COC)c3)nc2c1` [BC20276], the half-maximal inhibitory concentration (IC50) was no less than 25 µM.

`O=C(NCc1ccc2nc(-c3ccc(F)cc3)c(-c3ccc(F)cc3)nc2c1)NC1CCCNC1` (centres unmarked) [BC20250]: the IC50 was no less than 25 µM.

As for `O=C(Nc1ccc2nc(-c3ccc(F)cc3)c(-c3ccc(F)cc3)nc2c1)NC1CCCNC1` (centres unmarked) [BC20225], the half-inhibitory concentration (IC50) was no less than 25 µM.

As for `CC(=O)NCc1cccc(-c2nc3cc(C(=O)N4CCN(C)CC4)ccc3nc2-c2ccc(F)cc2)c1` [BC20230], the half-maximal inhibitory concentration (IC50) is no less than 25 µM.

Regarding `CC(=O)Nc1cccc(-c2nc3ccc(C(=O)N4CCN(C)CC4)cc3nc2-c2cccc(NC(C)=O)c2)c1` [BC20241], the half-maximal inhibitory concentration (IC50) is no less than 25 µM.

In the case of `O=C(Cc1cccnc1)NCc1ccc2nc(-c3ccc(F)cc3)c(-c3ccc(F)cc3)nc2c1` [BC20278], the 50% inhibitory concentration (IC50) lay within 1 to 25 µM.

For `CN(C)CC(=O)NCc1cccc(-c2nc3cc(C(=O)N4CCN(C)CC4)ccc3nc2-c2ccc(F)cc2)c1` [BC20263], the 50% inhibitory concentration (IC50) was no less than 25 µM.

With `CC(=O)NCc1cccc(-c2nc3ccc(C(=O)N4CCN(C)CC4)cc3nc2-c2ccc(F)cc2)c1` [BC20306], the IC50 is no less than 25 µM.

For `CN1CCN(C(=O)c2ccc3nc(-c4ccc(F)cc4)c(-c4cccc(CO)c4)nc3c2)CC1` [BC20240], the half-maximal inhibitory concentration (IC50) is no less than 25 µM.

Regarding `C#CCNC(=O)c1ccc2nc(-c3cccc(CNC(C)=O)c3)c(-c3cccc(CNC(C)=O)c3)nc2c1` [BC20274], the concentration for half-maximal inhibition (IC50) was no less than 25 µM.

In the case of `O=C(NCc1cccnc1)NCc1ccc2nc(-c3ccc(F)cc3)c(-c3ccc(F)cc3)nc2c1` [BC20236], the concentration for half-maximal inhibition (IC50) was 1 to 25 µM.

For the compound `CC(=O)N1CCCC(NC(=O)NCc2ccc3nc(-c4ccc(F)cc4)c(-c4ccc(F)cc4)nc3c2)C1` (centres unmarked) [BC20252], the concentration for half-maximal inhibition (IC50) was no less than 25 µM.

As for `O=C(Nc1cnc2nc(-c3ccc(F)cc3)c(-c3ccc(F)cc3)nc2c1)NC1CCCNC1` (centres unmarked) [BC20255], the 50% inhibitory concentration (IC50) was no less than 25 µM.

As to `CN1CCN(C(=O)c2ccc3nc(-c4ccc(F)cc4)c(-c4cccc(NS(C)(=O)=O)c4)nc3c2)CC1` [BC20210], the IC50 is no less than 25 µM.

In the case of `CN1CCN(Cc2cccc(-c3nc4ccc(C(=O)N5CCN(C)CC5)cc4nc3-c3cccc(CN4CCN(C)CC4)c3)c2)CC1` [BC20243], the IC50 is no less than 25 µM.

For `O=C(NCc1ccc2nc(-c3ccc(F)cc3)c(-c3ccc(F)cc3)nc2c1)c1cccnc1` [BC20267], the concentration for half-maximal inhibition (IC50) lay in the range of 1 to 25 µM.
